Entries after “also recorded” stand apart in the source; their conditions may differ. Read-outs that look alike come from different tables or passages of the source.
Experiments:
human CCL5 = biological target: T1, human CCL5 (Homo sapiens, UniProt P13501); experiment: Fluorescence anisotropy titration of 5(6)-Fam-labeled peptides by CCL5; assay type: binding; details: 100 nM 5(6)-Fam-labeled peptide, HEPES pH 7.4, 37 °C; for effect of CCL5 addition on fluorescence anisotropy / affinity in words: CCL5 up to 500 nM
T1 sequence (P13501 24-91): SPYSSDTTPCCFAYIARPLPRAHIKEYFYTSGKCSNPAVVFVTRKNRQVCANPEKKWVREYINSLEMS
Description: To assess this hypothesis, two peptides taken from the Evasin-4 sequence were synthesized by Boc-based solid-phase peptide synthesis (Figs. S8 and S9). The first peptide, Ev4 Glu^14–Ala^23, comprises the Glu^14–Ala^23 residues of Evasin-4, whereas the second one, Ev4 Glu^14–Asn^31, includes the longer region Glu^14–Asn^31 (Fig. 4C). Cys^27 in the Ev4 Glu^14–Asn^31 was mutated to alanine to prevent oxidation and formation of intermolecular disulfide bonds. Affinity of obtained peptides to CCL5 was studied by fluorescence anisotropy using 100 nM of 5(6)-Fam–labeled peptides and human CCL5.
Fluorescence polarization assays were carried out using FluoroMax 4 fluorimeter (Horiba) equipped with FM4-2000 polarizers in 3-ml cuvettes. 100 nM solution of 5(6)-Fam–labeled peptides in HEPES buffer pH 7.4 were titrated by a 30 μM stock solution of CCL5 at 37 °C. Fluorescent signal was measured using 495 and 520 nm as excitation and emission wavelengths. The final titration curve is a result of three or four independent measurements.

[1] = tested on: CCL5-induced THP-1 cell migration; experiment: THP-1 monocytic cell migration assay toward CCL5; assay type: cell-based, human; details: CCL5 0.5 µg/ml
Procedure: Human acute monocytic leukemia cell line (THP-1) monocytic cells were purchased from Leibniz-Institut DSMZ (ACC 16). The cells were cultured in RPMI 1640 GlutaMAX medium supplemented with 20 % fetal calf serum and 1 % penicillin/streptomycin (all Gibco ThermoFisher). The cells were cultured in a humidified atmosphere (5 % CO2, 95 % air, 37 °C) and routinely passed by splitting the cells (1:10) to fresh medium. The migration of monocytic cells toward chemoattractants was assessed in a 12-well chemotaxis chamber equipped with a 5-μm polycarbonate membrane (both Neuroprobe, Gaithersburg, MD, USA). Chemoattractants CCL5 (0.5 µg/ml) or CXCL4 (0.5 µg/ml) were preincubated with met–Evasin-4 (1 µg/ml) for 2 h at 37 °C subsequently added to the bottom well of the chemotaxis chamber. THP-1 monocytic cells (1 × 10^6/ml), suspended in RPMI 1640 GlutaMAX medium supplemented with 1 % fetal calf serum, were added in the upper wells and incubated for 90 min at 37 °C in a humidified atmosphere (5 % CO2, 95 % air). The nonmigrated cells were carefully removed, and the membrane was stained with Diff-Quick stain (Eberhard Lehmann GmbH, Berlin, Germany). Migrated cells were visualized by light microscopy, counted manually in five fields, and expressed as cells/mm^2.

[2] = Solubility/precipitation observed in NMR and crystallization sample preparation
Procedure: For NMR sample preparation, lyophilized proteins were dissolved in 25 mM phosphate buffer (pH 6.8–7.1) or 25 mM sodium acetate-d^3 buffer (pH 4.5) containing 0.1 mM EDTA, 0.2 mM sodium azide, 5% (v/v) D2O for deuterium lock, at final concentration of 50 μM for m–t-Evasin-4 and 82, 20, and 1 μM for E66S CCL5. The samples were buffer exchanged four or five times by ultracentrifugation using prewashed Amicon Ultra-3000 3-kDa (Millipore, USA) ultracentrifugation filters. Final NMR samples were prepared in 3- or 5-mm NMR tubes, containing traces of DSS for chemical shift calibration. All NMR spectra were recorded using a Bruker Avance III HD 700 MHz spectrometer, equipped with a cryogenically cooled TCI probe at 37 °C. To make the complex, equimolar amounts of unlabeled met–Evasin-4 or E66S CCL5 were titrated to their [^15N,^13C]-enriched complement samples. For met–Evasin-4 and the two complexes, the solution pH of the NMR sample was carefully adjusted to pH 7.1 to ensure stable, nonprecipitating solutions.

E66S CCL5 = experiment: NMR titration of 15N E66S CCL5 by Ev4 Glu14-Asn31; assay type: binding; details: 25 mM acetate
Procedure: In the case of E66S CCL5/Ev4 Glu^14–Asn^31 complex, 25 μM of ^15N E66S CCL5 in 25 mM acetate buffer, pH 4.5, was titrated by increasing concentrations of Ev4 Glu^14–Asn^31. For each concentration ^15N-^1H HSQC was recorded. Backbone resonance assignments were derived by following the shift of peak positions.

[3] = NMR analysis of E66S CCL5 monomer/dimer equilibria; assay type: physicochemical; details: pH 4.5, 37 °C
Procedure: To study the structural determinants of E66S CCL5 involved in Evasin-4 binding, NMR spectra were recorded for the [^15N,^13C]E66S CCL5–Evasin-4 complex. Initial ^15N-^1H HSQC spectra of [^15N,^13C]E66S CCL5 were recorded at pH 4.5 and 37 °C at concentrations of 1 and 20 μM. […] This observation goes in line with the obtained crystal structure because the E66S CCL5 dimer interface is formed by interactions of the N terminus with the 30s loop and β3-strand.

[4] = physiological pH; cited from earlier work
Procedure: (§1) CCL5 can oligomerize, forming dimers and oligomers of a higher order ([16]), which would complicate analysis of Evasin-4 binding. […] To address this question, surface plasmon resonance (SPR) biosensor analysis was performed with biotinylated Eva ...

Evasin-4 = details: cited from earlier work
Procedure: as §1

CCL3 = details: cited from earlier work
Description: Disruption of the chemokine signaling system is one of the crucial parts of ticks' strategy to evade immune responses. To neutralize chemokines, ticks secrete small cysteine-rich chemokine-binding proteins in their saliva with no homologues in mammals, termed Evasins ([6]). Evasins can be divided into two structurally unrelated C6 or C8 subfamilies embodying six and eight cysteines, respectively ([6]). […] In fact, the N terminus of C8-Evasins seems to play a crucial role in chemokine binding. For instance, replacement of the N terminus of Evasin-1 by that of P672, another C8-Evasin with different chemokine selectivity, produced a chim ...

CCL18 = details: cited from earlier work
Description: (§2) Disruption of the chemokine signaling system is one of the crucial parts of ticks' strategy to evade immune responses. To neutralize chemokines, ticks secrete small cysteine-rich chemokine-binding proteins in their saliva with no homologues in mammals, termed Evasins ([6]). Evasins can be divided into two structurally unrelated C6 or C8 subfamilies embodying six and eight cysteines, respectively ([6]). […] Although several hundred of putative C6- and C8-Evasins have been identified in tic ...

CCL4 = details: cited from earlier work
Description: as §2

With “H-EEEDDYTAYA-NH2 [Ev4 Glu^14–Ala^23, peptide comprising the Glu14–Ala23 residues of Evasin-4]” the “effect of CCL5 addition on fluorescence anisotropy / affinity in words” value (human CCL5) was “no effect even at concentration of 500 nM” and the “affinity to CCL5” value (human CCL5; fluorescence anisotropy) was “no affinity to CCL5”.

In the case of “H-EEEDDYTAYAPLTAYFTN-NH2 [Ev4 Glu^14–Asn^31, H2N-EEEDDYTAYAPLTAYFTN-CONH2]”, the “effect of CCL5 addition on fluorescence anisotropy / affinity in words” value (human CCL5) is reported as “dose-dependent increase of fluorescence anisotropy”, the “affinity to CCL5” value (human CCL5; fluorescence anisotropy) is reported as “nanomolar affinity to CCL5; also recorded: binds CCL5 with nanomolar affinity” and the Kd (human CCL5; fluorescence anisotropy, titrated by 30 μM stock of CCL5, ex 495/em 520 nm, three or four independent measurements, read-out: apparent KD) is reported as 69 ± 12 nM. For the same molecule, the “required inhibitory concentrations compared with full-length Evasin-4” value ([1]; CCL5-induced THP-1 migration, compared with full-length protein) was “the required concentrations were higher compared with the full-length protein”, the “concentration at which full inhibition of CCL5-induced THP-1 migration was reached” value ([1]; full inhibition only at this concentration, 1 × 10^6 cells/ml, 90 min, 37 °C) was 10 µM and the “inhibition of CCL5-induced THP-1 migration” value ([1]; increasing concentrations of Ev4 Glu14-Asn31, 1 × 10^6 cells/ml, 90 min, 37 °C) was “dose-dependent inhibition of CCL5-induced THP-1 cell migration; also recorded: effectively inhibits CCL5-induced monocyte migration; also recorded: blocks CCL5-induced monocyte migration”. For the same molecule, the “solubility of peptide” value ([2]; low pH values, negatively charged residues) was “poorly soluble at low pH values”, the “solubility of complex with E66S CCL5” value ([2]; peptide/E66S CCL5 complex compared with E66S CCL5-Evasin-4 complex) was “more soluble compared with the E66S CCL5–Evasin-4 complex” and the “effect of peptide titration on E66S CCL5 signals” value (E66S CCL5; 25 μM [15N]E66S CCL5, increasing concentrations of peptide, pH 4.5) was “binds the CCL5 monomer; also recorded: gradual shift of signals of monomeric E66S CCL5 and decrease of signal intensity for the dimeric form; also recorded: only CCL5 monomer signals are affected upon binding”. The “most perturbed residues of E66S CCL5 by peptide binding” value (E66S CCL5; 25 μM [15N]E66S CCL5 monomer form, before and after 500 μM Ev4 Glu14-Asn31, pH 4.5, 37 °C) was “N-loop (Phe^12–Arg^21 and His^23) and in the β3-strand (Gln^48 and Cys^50)”.

B1: E66S CCL5: CCL5 mutant that mainly forms dimers at physiological pH (protein, UniProt P13501 24-91, looked up, variant E66S)
C-C motif chemokine 5: SPYSSDTTPCCFAYIARPLPRAHIKEYFYTSGKCSNPAVVFVTRKNRQVCANPEKKWVREYINSLSMS
In the case of B1, the “oligomeric form” value ([3]; 1 μM E66S CCL5, 15N-1H HSQC) is given as “monomeric form”, the “oligomeric form” value ([3]; 20 μM E66S CCL5, 15N-1H HSQC, two sets of signals) is given as “monomeric and dimeric form” and the “oligomeric form” value [4] is given as “mainly forms dimers”.

B2: E66A CCL5: CCL5 mutant with deficiency in oligomerization (ref 25) (protein, UniProt P13501 24-91, looked up, variant E66A)
C-C motif chemokine 5: SPYSSDTTPCCFAYIARPLPRAHIKEYFYTSGKCSNPAVVFVTRKNRQVCANPEKKWVREYINSLAMS
In the case of B2, the “oligomerization and Evasin-4 inhibition potency” value (Evasin-4) is given as “deficiency in oligomerization without disturbing Evasin-4 inhibition potency”.

B3: CCL5: chemokine CC-motif ligand 5, also known as RANTES (protein, UniProt P13501 24-91, looked up)
C-C motif chemokine 5: SPYSSDTTPCCFAYIARPLPRAHIKEYFYTSGKCSNPAVVFVTRKNRQVCANPEKKWVREYINSLEMS
For B3, the “induction of THP-1 migration” value ([1]; compared with control in the absence of chemoattractants, 90 min, 37 °C) was “induced significant migration of THP-1 cells”.

B4: Evasin-1: 94–amino acid protein from the C8 subfamily, from Rhipicephalus sanguineus (protein, UniProt P0C8E7 21-114, looked up)
Evasin-1: EDDEDYGDLGGCPFLVAENKTGYPTIVACKQDCNGTTETAPNGTRCFSIGDEGLRRMTANLPYDCPLGQCSNGDCIPKETYEVCYRRNWRDKKN
For B4, the affinity in words (CCL3) is listed as “high-affinity binder”, the affinity in words (CCL18) is listed as “high-affinity binder” and the affinity in words (CCL4) is listed as “high-affinity binder”.

From PMC7573271, “Structural characterization of anti-CCL5 activity of the tick salivary protein evasin-4” (The Journal of Biological Chemistry, 2020)
